The values below come from patent publication US10478425B2, “5-phenylazaindole derivative having AMPK-activating activity” (Shionogi & Co., Ltd., priority 2016, dated 2019).

Data set [1] addresses T1, Human AMPK α2β2γ1 (Homo sapiens, UniProt O43741+P54646).
T1 construct: The full length cDNAs of human AMPK β2 (NM_005399.3) and human AMPK α2 (NM_006252.3); The full length cDNAs of human AMPK β2 (NM_005399.3); the full length cDNA of human AMPK γ1 (NM_002733.3) had been inserted into pET28b(+); 6×His (N); made in house; host or cells: Escherichia coli BL21 CodonPlus (DE3)-RIL
Kind of data set: Test Example 2: activation of phosphorylated human AMPK α2β2γ1 (mobility-shift kinase assay, FL-Peptide 7). The format is biochemical. To be noted: for EC150: compound concentration showing 150% relative to the control (100%), human AMPK α2β2γ1 phosphorylated with CaMKK2; for Emax: maximum rate of increase in activity within the measurement range, control = 100%, read-out: Emax. The essentials: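 His-tagged α2β2γ1 expressed in E. coli was pre-phosphorylated by GST-CaMKKβ (25 °C, 1–1.5 h), then exposed to compound for 10 min (1% DMSO). Reaction: pH 7.0 HEPES, ATP and 1.5 μM FL-Peptide 7 (final), 2 h at 25 °C. Mobility-shift conversion gave % activity increase versus compound-free control.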

Data set [2] relates to phosphorylation of endogenous acetyl-CoA carboxylase (ACC) in L6-GLUT4myc myoblasts. Kind of data set: Test Example 3: cell-based ELISA of ACC (Ser79) phosphorylation for AMPK activation in L6-GLUT4myc myoblasts. To be noted: for EC (150% of control): concentration causing 150% relative to vehicle control (100%), 3 hours, phospho-ACC; for Emax: maximum response within varying concentrations, vehicle control = 100%. Here is the method:
Cell-based assay for AMPK activation potency of compounds was performed with L6-GLUT4myc myoblasts (J. Biol. Chem. 278:17953-62, 2003) in a 96-well or 384-well plate by detecting the phosphorylation of endogenous acetyl-CoA carboxylase (ACC) using cell-based ELISA method. The cells were seeded in a 96-well plate at a density of 2×10^4 cells per well or in a 384-well plate at a density of 3.5×10^3 cells per well in minimum essential media (α-MEM) supplemented with 10% fetal bovine serum, 100 U/mL penicillin, 100 μg/mL streptomycin, 2 μg/mL blasticidin S hydrochloride and 0.5 mg/mL G418 disulfate, and maintained in a humidified atmosphere of 95% air and 5% CO2 at 37° C. for 24 hours. Following the overnight culture with an assay buffer consisting of 0.1% bovine serum albumin (BSA), 100 U/mL penicillin and 100 μg/mL streptomycin, cells were treated with varying concentrations of compounds or vehicle (dimethyl sulfoxide at a final concentration of 0.33%) in the presence of 0.1% BSA or 4% BSA for 3 hours at room temperature. After fixing cells with ice-cold 4% formaldehyde in Tris-buffered saline (TBS) for 30 min, the fixed cells were rinsed with TBS containing 0.1% or 0.01% Triton X-100 (TBS-T) and quenched with 0.6% hydrogen peroxide in TBS-T, and blocked with a blocking reagent (Blocking One P manufactured by Nacalai Tesque). Then, anti-phospho-ACC (Ser79) antibody as the primary antibody (manufactured by Cell Signaling Technology) diluted with TBS-T containing 5% Blocking One P was added to each well and the plate was incubated overnight at 4° C. After rinsing each well with TBS-T, horseradish peroxidase (HRP)-conjugated anti-rabbit IgG as the secondary antibody diluted with TBS-T containing 5% Blocking One P was added to each well and the plate was incubated for 1 hour in 96-well plate or for 5 hours in 384-well plate at room temperature. Each well of the plate was rinsed with TBS-T and added a chemiluminescent reagent (ImmunoStar® LD manufactured by Wako Pure Chemical Industries) for detection of HRP conjugates. Ten minutes later, the luminescence intensity was measured using luminometer (ViewLux or ARVO manufactured by PerkinElmer). The luminescence in the presence of compound was calculated as the rate of change relative to vehicle control, which is in the absence of compound.
For orientation: ELISA stands for enzyme-linked immunosorbent assay.

Data set [3] is described as follows: BA test (oral absorption). The format is in vivo. The settings on record: rat, plasma; rats; calculated from AUCs of oral and intravenous administration groups. Here is the method: • (1) Animals: mice or rats • (2) Animal husbandry: Mice and rats had free access to solid food and sterilized bottled tap water. • (3) Setting of dose and group compositions: orally or intravenously administered at a predetermined dose Group compositions were as shown below. (Dose depends on the compound)
Oral: 1 to 30 mg/kg (n=2 to 3)
Intravenous: 0.5 to 10 mg/kg (n=2 to 3) • (4) Preparation of administration formulation: for oral administration, in a solution or a suspension state; for intravenous administration, in a solubilized state • (5) Dosing procedure: In oral administration study, the test substance was forcibly administered to the stomach by using a gavage tube. In intravenous administration study, the test substance was administered via tail vein using a syringe with a needle. • (6) Evaluation items: Blood was collected at each time point, and plasma concentration of the drug was determined by LC/MS/MS. • (7) Data analysis: Regarding the transition of the plasma concentration, area under the plasma concentration-time curve (AUC) was calculated by means of WinNonlin® program, respectively. Bioavailability (BA) was calculated from AUCs of the oral administration group and intravenous administration group.

The structures appear in SMILES notation.

T1 sequence (P54646 whole entry): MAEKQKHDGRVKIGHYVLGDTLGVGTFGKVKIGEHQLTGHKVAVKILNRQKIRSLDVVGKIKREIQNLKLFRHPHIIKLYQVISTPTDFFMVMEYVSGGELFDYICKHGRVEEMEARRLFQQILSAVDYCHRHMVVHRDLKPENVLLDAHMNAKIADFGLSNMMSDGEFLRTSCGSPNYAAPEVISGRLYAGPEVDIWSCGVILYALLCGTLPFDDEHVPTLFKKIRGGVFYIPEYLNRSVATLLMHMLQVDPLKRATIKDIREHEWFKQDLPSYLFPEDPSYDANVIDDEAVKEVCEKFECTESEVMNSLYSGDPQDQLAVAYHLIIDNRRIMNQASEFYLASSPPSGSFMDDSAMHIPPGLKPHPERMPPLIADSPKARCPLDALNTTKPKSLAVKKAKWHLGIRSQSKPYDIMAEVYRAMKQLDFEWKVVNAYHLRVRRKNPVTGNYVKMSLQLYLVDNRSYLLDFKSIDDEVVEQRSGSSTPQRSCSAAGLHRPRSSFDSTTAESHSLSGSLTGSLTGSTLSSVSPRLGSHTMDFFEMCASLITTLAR
T1 sequence (O43741 whole entry): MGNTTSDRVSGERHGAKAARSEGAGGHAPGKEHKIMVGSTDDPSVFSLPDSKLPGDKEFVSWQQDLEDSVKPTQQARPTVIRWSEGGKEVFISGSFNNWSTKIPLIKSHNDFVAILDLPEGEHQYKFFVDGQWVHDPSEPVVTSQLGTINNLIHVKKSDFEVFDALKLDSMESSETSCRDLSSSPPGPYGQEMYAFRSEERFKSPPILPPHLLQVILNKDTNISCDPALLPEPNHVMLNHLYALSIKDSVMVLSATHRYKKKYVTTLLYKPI
T1 sequence (P54619 whole entry partner): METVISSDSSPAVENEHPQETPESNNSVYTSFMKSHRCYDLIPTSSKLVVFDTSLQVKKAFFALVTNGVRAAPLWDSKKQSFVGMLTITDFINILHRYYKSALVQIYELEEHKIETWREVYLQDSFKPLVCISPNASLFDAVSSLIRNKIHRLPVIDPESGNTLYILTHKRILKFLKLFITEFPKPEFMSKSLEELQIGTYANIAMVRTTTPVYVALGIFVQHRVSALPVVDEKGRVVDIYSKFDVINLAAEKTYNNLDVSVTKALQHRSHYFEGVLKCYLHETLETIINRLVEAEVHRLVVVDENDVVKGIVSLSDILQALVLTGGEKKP

As to `O[C@@H]1CO[C@H]2[C@@H]1OC[C@H]2Oc1cc2nc(-c3ccc([C@@H]4CCCC[C@@H]4O)cc3)c(F)cc2[nH]1` [Compound I-2-18], in data set [1], the EC150 is 12 nM and the Emax stood at 618%. In data set [2], the EC (150% of control) amounted to 0.164 µM and the maximal response (Emax) is 612%. Further, the bioavailability in data set [3] was 18.6%.
For `COCCNc1ccc(-c2ccc(-c3nc4cc(O[C@@H]5CO[C@H]6[C@@H]5OC[C@H]6O)[nH]c4cc3F)cc2)cc1` [Compound I-2-31], in that order: 6.8 nM, 478%, 0.134 µM, 656% and 40.5%.
On to `CN1CCC(Oc2ccc(-c3ccc(-c4nc5cc(O[C@@H]6CO[C@H]7[C@@H]6OC[C@H]7O)[nH]c5cc4F)cc3)cc2)C1=O` (some centres unmarked) [Compound I-2-32], for which, in data set [1], the EC150 came to 1.3 nM and the maximal response (Emax) is 379%. For the same molecule, in data set [2], the EC (150% of control) worked out at 0.086 µM and the maximum response (Emax) was 531%. Besides, the bioavailability in data set [3] was 28.6%.
With `O[C@@H]1CO[C@H]2[C@@H]1OC[C@H]2Oc1cc2nc(-c3ccc(-c4ccc(O[C@@H]5CCOC5)cc4)cc3)c(F)cc2[nH]1` [Compound I-2-84], in data set [1], the EC150 turned out to be 4.3 nM and the maximum response (Emax) came to 514%. In data set [2], this molecule showed an EC (150% of control) of 0.079 µM and an Emax of 684%. Also, in data set [3], the bioavailability is 52.1%.

A word on the Emax: it is the maximal effect, on the per cent scale that the assay sets. For orientation: bioavailability means dose-corrected exposure relative to a reference, in per cent.
